Source: patent publication US20120244567A1, “HUMAN EMBRYONIC STEM CELLS FOR HIGH THROUGHOUT DRUG SCREENING” (BUCK INSTITUTE FOR RESEARCH ON AGING, priority 2009, published 2012)
Structures can show the parent of a compound that is named as a salt.

Test system: dopaminergic neurons
Description: RNAs isolated from NSCs and neurons with and without drug treatments were hybridized to Illumina HumanRef-8 BeadChip (Illumina, Inc., San Diego, Calif., performed by Microarray core facility at the Burnham Institute for Medical Research). The Illumina array data were normalized by the quantile method, and then transformed log 2 ratio values for a zero mean for expression values of each gene across all samples. The statistical and bioinformatics analyses were conducted by using R and the bioconductor package (www.bioconductor.org). The gene set enrichment analysis was conducted using the GSEA software (www.broad.mit.edu/gsea).
The comparative results are then measured by a non-parametric, running sum statistic termed the enrichment score. The enrichment score significance is assessed by 1,000 permutation tests to compute the enrichment p-value.

[1] = enriched in treated DA neurons, Nom P-Val 0.910714
[2] = enriched in treated DA neurons, Nom P-Val 1
[3] = enriched in untreated DA neurons, NOM p-val 0
[4] = enriched in untreated DA neurons, NOM p-val 0.111111
[5] = enriched in untreated DA neurons, NOM p-val 0.166667
[6] = enriched in untreated DA neurons, NOM p-val 0.444444
[7] = enriched in untreated DA neurons, NOM p-val 0.818182
[8] = enriched in untreated DA neurons, NOM p-val 0.90625
[9] = enriched in untreated DA neurons, NOM p-val 0.955556
[10] = enriched in untreated DA neurons, NOM p-val 1

CCCCc1oc2ccccc2c1C(=O)c1cc(I)c(OCCN(CC)CC)c(I)c1 [Amiodarone Hydrochloride] was tested, and the “Nes: Transferase Activity Transferring Glycosyl Groups” value (enriched in treated DA neurons, Nom P-Val 0.864865) was 0.8297, the “Nes: Cation Binding” value (enriched in treated DA neurons, Nom P-Val 0.894737) was 0.7825 and the “Nes: Calmodulin Binding” value [1] was 0.6917. The “Nes: Protein N Terminus Binding” value [1] was 0.7167, the “Nes: Guanyl Nucleotide Binding” value (enriched in treated DA neurons, Nom P-Val 0.913044) was 0.72 and the “Nes: Hydrolase Activity Acting On Ester Bonds” value (enriched in treated DA neurons, Nom P-Val 0.924051) was 0.7747. For the same compound, the “Nes: Transcription Corepressor Activity” value (enriched in treated DA neurons, Nom P-Val 0.942857) was 0.6958, the “Nes: Atpase Activity Coupled To Transmembrane Movement Of Ions” value (enriched in treated DA neurons, Nom P-Val 0.944444) was 0.5935 and the “Nes: Structural Molecule Activity” value (enriched in treated DA neurons, Nom P-Val 0.963415) was 0.7324. The “Nes: Transferase Activity Transferring Alkyl Or Aryl Other Than Methyl Groups” value (enriched in treated DA neurons, Nom P-Val 0.968254) was 0.6284, the “Nes: Actin Filament Binding” value (enriched in treated DA neurons, Nom P-Val 0.983871) was 0.3138 and the “Nes: Mrna Binding” value (enriched in treated DA neurons, Nom P-Val 0.984375) was 0.4087. The “Nes: Transcription Factor Binding” value (enriched in treated DA neurons, Nom P-Val 0.987013) was 0.742, the “Nes: Phosphoric Ester Hydrolase Activity” value (enriched in treated DA neurons, Nom P-Val 0.9875) was 0.6959 and the “Nes: Atpase Activity” value [2] was 0.6528. The “Nes: Rna Binding” value [2] was 0.4406, the “Nes: Translation Initiation Factor Activity” value [2] was 0.3311 and the “NES: Gtpase Binding” value [3] was −1.62. For the same compound, the “NES: Hydrolase Activity Hydrolyzing O Glycosyl Compounds” value [3] was −1.479, the “NES: Ras Gtpase Binding” value (enriched in untreated DA neurons, NOM p-val 0.02) was −1.585 and the “NES: Cation Channel Activity” value (enriched in untreated DA neurons, NOM p-val 0.027778) was −1.394. For the same compound, the “NES: Small Gtpase Binding” value (enriched in untreated DA neurons, NOM p-val 0.047619) was −1.4967, the “NES: Gated Channel Activity” value (enriched in untreated DA neurons, NOM p-val 0.051282) was −1.491 and the “NES: Ion Channel Activity” value (enriched in untreated DA neurons, NOM p-val 0.060606) was −1.2. The “NES: Hydrolase Activity Acting On Glycosyl Bonds” value (enriched in untreated DA neurons, NOM p-val 0.08) was −1.414, the “NES: Nucleobase Nucleoside Nucleotide Kinase Activity” value (enriched in untreated DA neurons, NOM p-val 0.081081) was −1.368 and the “NES: Voltage Gated Channel Activity” value (enriched in untreated DA neurons, NOM p-val 0.085714) was −1.284. The “NES: Kinase Binding” value (enriched in untreated DA neurons, NOM p-val 0.1) was −1.316, the “NES: Exopeptidase Activity” value (enriched in untreated DA neurons, NOM p-val 0.105263) was −1.3223 and the “NES: Metal Ion Transmembrane Transporter Activity” value [4] was −1.269. The “NES: Potassium Channel Activity” value [4] was −1.325, the “NES: Substrate Specific Channel Activity” value (enriched in untreated DA neurons, NOM p-val 0.129032) was −1.221 and the “NES: Chromatin Binding” value (enriched in untreated DA neurons, NOM p-val 0.142857) was −1.239. The “NES: Gtpase Activator Activity” value (enriched in untreated DA neurons, NOM p-val 0.157895) was −1.222, the “NES: Phosphoprotein Phosphatase Activity” value (enriched in untreated DA neurons, NOM p-val 0.162162) was −1.15 and the “NES: Electron Carrier Activity” value [5] was −1.204. The “NES: Voltage Gated Cation Channel Activity” value [5] was −1.174, the “NES: Transition Metal Ion Binding” value (enriched in untreated DA neurons, NOM p-val 0.171429) was −1.098 and the “NES: Protein C Terminus Binding” value (enriched in untreated DA neurons, NOM p-val 0.212121) was −1.195. For the same compound, the “NES: Helicase Activity” value (enriched in untreated DA neurons, NOM p-val 0.216216) was −1.187, the “NES: Protein Complex Binding” value (enriched in untreated DA neurons, NOM p-val 0.222222) was −1.133 and the “NES: Enzyme Binding” value (enriched in untreated DA neurons, NOM p-val 0.233333) was −1.04. The “NES: Ras Gtpase Activator Activity” value (enriched in untreated DA neurons, NOM p-val 0.243902) was −1.144, the “NES: S Adenosylmethionine Dependent Methyltransferase Activity” value (enriched in untreated DA neurons, NOM p-val 0.25) was −1.2358 and the “NES: Ligand Gated Channel Activity” value (enriched in untreated DA neurons, NOM p-val 0.263158) was −1.236. The “NES: Cation Transmembrane Transporter Activity” value (enriched in untreated DA neurons, NOM p-val 0.291667) was −1.08, the “NES: Rho Gtpase Activator Activity” value (enriched in untreated DA neurons, NOM p-val 0.297297) was −1.16 and the “NES: Rna Dependent Atpase Activity” value (enriched in untreated DA neurons, NOM p-val 0.318182) was −1.11. The “NES: Atp Dependent Helicase Activity” value (enriched in untreated DA neurons, NOM p-val 0.324324) was −1.133, the “NES: Methyltransferase Activity” value (enriched in untreated DA neurons, NOM p-val 0.340909) was −1.089 and the “NES: Auxiliary Transport Protein Activity” value (enriched in untreated DA neurons, NOM p-val 0.347826) was −1.141. The “NES: Transcription Factor Activity” value (enriched in untreated DA neurons, NOM p-val 0.35) was −1.022, the “NES: Rna Helicase Activity” value (enriched in untreated DA neurons, NOM p-val 0.365854) was −1.053 and the “NES: Growth Factor Activity” value (enriched in untreated DA neurons, NOM p-val 0.367347) was −1.079. For the same compound, the “NES: Small Gtpase Regulator Activity” value (enriched in untreated DA neurons, NOM p-val 0.387097) was −1.038, the “NES: Phosphotransferase Activity Phosphate Group As Acceptor” value (enriched in untreated DA neurons, NOM p-val 0.431818) was −1.058 and the “NES: Protein Tyrosine Phosphatase Activity” value (enriched in untreated DA neurons, NOM p-val 0.432432) was −1.019. For the same compound, the “NES: Peptidase Activity” value [6] was −0.9811, the “NES: Tubulin Binding” value [6] was −0.9894 and the “NES: Cytokine Binding” value (enriched in untreated DA neurons, NOM p-val 0.459459) was −0.9644. The “NES: Gtpase Regulator Activity” value (enriched in untreated DA neurons, NOM p-val 0.461538) was −0.9685, the “NES: Actin Binding” value (enriched in untreated DA neurons, NOM p-val 0.464286) was −1.007 and the “NES: Transferase Activity Transferring One Carbon Groups” value (enriched in untreated DA neurons, NOM p-val 0.466667) was −0.9965. The “NES: Receptor Binding” value (enriched in untreated DA neurons, NOM p-val 0.47619) was −0.9865, the “NES: Protein Serine Threonine Phosphatase Activity” value (enriched in untreated DA neurons, NOM p-val 0.48718) was −0.9907 and the “NES: Polysaccharide Binding” value (enriched in untreated DA neurons, NOM p-val 0.5) was −0.9231. The “NES: Atp Dependent Rna Helicase Activity” value (enriched in untreated DA neurons, NOM p-val 0.52381) was −1.022, the “NES: Sh3 Sh2 Adaptor Activity” value (enriched in untreated DA neurons, NOM p-val 0.542857) was −0.8755 and the “NES: Pattern Binding” value (enriched in untreated DA neurons, NOM p-val 0.567568) was −0.9438. For the same compound, the “NES: Glycosaminoglycan Binding” value (enriched in untreated DA neurons, NOM p-val 0.571429) was −0.9097, the “NES: Phosphoric Monoester Hydrolase Activity” value (enriched in untreated DA neurons, NOM p-val 0.612903) was −0.9735 and the “NES: Hydrolase Activity Acting On Carbon Nitrogen But Not Peptide Bonds” value (enriched in untreated DA neurons, NOM p-val 0.634146) was −0.8501. The “NES: Cofactor Binding” value (enriched in untreated DA neurons, NOM p-val 0.636364) was −0.8571, the “NES: Protein Tyrosine Kinase Activity” value (enriched in untreated DA neurons, NOM p-val 0.657143) was −0.8381 and the “NES: Oxidoreductase Activity Go 0016705” value (enriched in untreated DA neurons, NOM p-val 0.675676) was −0.8606. The “NES: Growth Factor Binding” value (enriched in untreated DA neurons, NOM p-val 0.705882) was −0.8342, the “NES: Signal Sequence Binding” value (enriched in untreated DA neurons, NOM p-val 0.707317) was −0.8186 and the “NES: Cysteine Type Peptidase Activity” value (enriched in untreated DA neurons, NOM p-val 0.714286) was −0.844. The “NES: Dna Dependent Atpase Activity” value (enriched in untreated DA neurons, NOM p-val 0.783784) was −0.8332, the “NES: Cysteine Type Endopeptidase Activity” value [7] was −0.8093 and the “NES: Oxidoreductase Activity” value [7] was −0.9148. The “NES: Organic Acid Transmembrane Transporter Activity” value (enriched in untreated DA neurons, NOM p-val 0.833333) was −0.7234, the “NES: Lipid Binding” value (enriched in untreated DA neurons, NOM p-val 0.852941) was −0.7964 and the “NES: Ribonuclease Activity” value (enriched in untreated DA neurons, NOM p-val 0.875) was −0.6173. For the same compound, the “NES: Protein Kinase Regulator Activity” value (enriched in untreated DA neurons, NOM p-val 0.885714) was −0.7344, the “NES: Rna Splicing Factor Activity Transesterification Mechanism” value (enriched in untreated DA neurons, NOM p-val 0.891892) was −0.5675 and the “NES: Specific Rna Polymerase Ii Transcription Factor Activity” value (enriched in untreated DA neurons, NOM p-val 0.904762) was −0.6412. The “NES: Isomerase Activity” value [8] was −0.6048, the “NES: Transcription Activator Activity” value [8] was −0.8411 and the “NES: Kinase Regulator Activity” value (enriched in untreated DA neurons, NOM p-val 0.911765) was −0.6989. For the same compound, the “NES: Phospholipid Binding” value (enriched in untreated DA neurons, NOM p-val 0.914894) was −0.6869, the “NES: Atpase Activity Coupled” value (enriched in untreated DA neurons, NOM p-val 0.925926) was −0.7071 and the “NES: Carboxylic Acid Transmembrane Transporter Activity” value (enriched in untreated DA neurons, NOM p-val 0.947368) was −0.696. For the same compound, the “NES: Phosphoinositide Binding” value (enriched in untreated DA neurons, NOM p-val 0.953488) was −0.5604, the “NES: Amino Acid Transmembrane Transporter Activity” value [9] was −0.4938 and the “NES: Serine Hydrolase Activity” value [9] was −0.6304. The “NES: Hormone Receptor Binding” value (enriched in untreated DA neurons, NOM p-val 0.969697) was −0.4774, the “NES: Protein Heterodimerization Activity” value (enriched in untreated DA neurons, NOM p-val 0.971429) was −0.7909 and the “NES: Oxidoreductase Activity Acting On Nadh Or Nadph” value (enriched in untreated DA neurons, NOM p-val 0.975) was −0.4995. For the same compound, the “NES: Serine Type Peptidase Activity” value (enriched in untreated DA neurons, NOM p-val 0.97561) was −0.6529, the “NES: Amine Transmembrane Transporter Activity” value [10] was −0.4108 and the “NES: Nucleotidyltransferase Activity” value [10] was −0.497. For the same compound, the “NES: Structural Constituent Of Ribosome” value [10] was −0.2676 and the “NES: Serine Type Endopeptidase Activity” value (enriched in untreated DA neurons, NOM p-val […]) was −0.6588.
